This note sets out measurements from ChEMBL document CHEMBL1126986, “Nonsteroidal inhibitors of human type I steroid 5-alpha-reductase” (J Med Chem, 1993).

Broadly, the IC50 is the point on the concentration scale where inhibition reaches its midpoint.

The first assay concerns the target T1, 3-oxo-5-alpha-steroid 4-dehydrogenase 2 (Homo sapiens, UniProt P31213).
T1 sequence (P31213 whole entry): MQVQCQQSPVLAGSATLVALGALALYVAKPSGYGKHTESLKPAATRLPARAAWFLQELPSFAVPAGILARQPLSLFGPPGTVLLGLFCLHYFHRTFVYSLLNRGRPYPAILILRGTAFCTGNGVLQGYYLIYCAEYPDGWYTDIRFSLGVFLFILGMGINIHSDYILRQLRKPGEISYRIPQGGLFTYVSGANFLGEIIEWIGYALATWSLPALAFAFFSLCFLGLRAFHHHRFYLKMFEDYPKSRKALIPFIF
The experiment in a line: Compound was tested for inhibition of Type II 5-alpha-reductase in Human Prostate Homogenates (HPH).
Consider `CN1C(=O)CC[C@@H]2c3ccc(Cl)cc3CC[C@H]21` [BEXLOSTERIDE], for which the IC50 was greater than 10000 nM.
On the same count and under the same terms, the same measure for `CC(C)(C)NC(=O)[C@H]1CC[C@H]2[C@@H]3CC=C4C=C(C(=O)O)CC[C@]4(C)[C@H]3CC[C@]12C` [EPRISTERIDE]: 8 nM.

A further assay concerns the target T2, 3-oxo-5-alpha-steroid 4-dehydrogenase 1 (Homo sapiens, UniProt P18405).
T2 sequence (P18405 whole entry): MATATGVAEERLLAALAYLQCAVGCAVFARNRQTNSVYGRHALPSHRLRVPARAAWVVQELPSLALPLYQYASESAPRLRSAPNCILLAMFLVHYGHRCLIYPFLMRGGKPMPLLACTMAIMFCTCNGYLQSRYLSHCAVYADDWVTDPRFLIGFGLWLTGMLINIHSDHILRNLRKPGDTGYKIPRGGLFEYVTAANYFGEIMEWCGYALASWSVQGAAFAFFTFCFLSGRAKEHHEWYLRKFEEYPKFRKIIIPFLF
The experiment in a line: Compound was tested for inhibition of Type I 5-alpha-reductase in Human genital skin (Hs68) foreskin fibroblast cells. It is filed as cell-based.
For `CC(C)(C)NC(=O)[C@H]1CC[C@H]2[C@@H]3CC[C@H]4NC(=O)C=C[C@]4(C)[C@H]3CC[C@]12C` [FINASTERIDE], the IC50 was 62 nM.

A further assay addresses T2, 3-oxo-5-alpha-steroid 4-dehydrogenase 1. The assay is described as follows: In vitro inhibition of DHT production in Hs 68 (human genital fibroblast) cells.
As to `O=C1CCC2=C(CCc3cccc(F)c32)N1`, 10000 nM corresponded to half-maximal inhibition (IC50).
`CN1C(=O)CC[C@@H]2c3ccc(Cl)cc3CC[C@H]21` [BEXLOSTERIDE]: the IC50 was found to be 8 nM.
For the compound `CN1C(=O)CC[C@@H]2c3ccc(F)cc3CC[C@H]21`, the IC50 was 35 nM.
`O=C1CC[C@@H]2c3ccc(Cl)cc3CC[C@H]2N1` gave an IC50 of 60 nM.
The compound `O=C1CCC2=C(CCc3cc(Cl)ccc32)N1` registered an IC50 of 460 nM.
Regarding `CN1C(=O)CCC2=C1CCc1cc(Cl)ccc12`, the IC50 worked out at 30 nM.
Take `C[C@]12CCC(=O)N[C@@H]1CCc1cc(Cl)ccc12`: 1800 nM corresponded to half-maximal inhibition (IC50).
Take `CN1C(=O)CC[C@@H]2c3ccc(Cl)cc3CC[C@@H]21`: it took 41 nM to reach half-maximal inhibition (IC50). This IC50 is about 44-fold lower than that of the compound before.
`COc1ccc2c(c1)CC[C@@H]1[C@@H]2CCC(=O)N1C` returned an IC50 of 120 nM.
Turning to `O=C1CCC2=C(CCc3ccc(F)cc32)N1`, the IC50 stood at 2300 nM.
`CN1C(=O)CC[C@]2(C)c3ccc(Cl)cc3CC[C@@H]12`: the IC50 came to 17 nM.
As for `CC(C)(C)NC(=O)[C@H]1CC[C@H]2[C@@H]3CC=C4C=C(C(=O)O)CC[C@]4(C)[C@H]3CC[C@]12C` [EPRISTERIDE], the half-inhibitory concentration (IC50) was 7500 nM.
Regarding `CC12CCC(=O)NC1=CCc1cc(Cl)ccc12` (stereo not drawn), it took 3600 nM to reach half-maximal inhibition (IC50).
With `CN1C(=O)CCC2(C)C1=CCc1cc(Cl)ccc12` (stereo not drawn), the IC50 was 120 nM.
The compound `O=C1CCC2=C(CCc3c(F)cccc32)N1` had a half-inhibitory concentration (IC50) of 3200 nM.
Turning to `CN1C(=O)CC[C@@H]2c3ccc(F)cc3CC[C@@H]21`, the concentration for half-maximal inhibition (IC50) amounted to 320 nM.
`O=C1CCC2=C(CCc3ccccc32)N1` yielded a half-inhibitory concentration (IC50) of 6500 nM.
The same measure, in the same setting: the same measure for `O=C1CCC2=C(CCc3cc(F)ccc32)N1`: 600 nM; for `Cc1ccc2c(c1)CC[C@@H]1[C@@H]2CCC(=O)N1C`: 11 nM; for `CN1C(=O)CC[C@@H]2c3ccccc3CC[C@H]21`: 560 nM.
